Test results from PMC4026528 (PLoS ONE, 2014).
“And” between values parts separate entries of the source, which are not always exact repeats. Identical values can stand only once.

What was measured:
[1] = tested on: Notch signaling in HEK293 cells; assay: Hes5 promoter luciferase reporter with Notch1-IC, HEK293; format: cell-based; settings: HEK293, Notch1-IC stimulation, data not shown
Text: (§1) The generation of TCF-Luciferase and TA-Renilla reporter plasmids as well as IC50 determination and calculation was reported previously. Human AXIN1 and WNT3A cDNAs were purchased from Origene as “transfection ready” plasmids. Dominant negative TCF4 cDNA was purchased from Upstate. Luciferase reporter of the nucleolin promoter (pNucL14) and FLAG-c-Myc expressing vector were from B. Amati. Luciferase reporter of the Hes5 promoter and Notch1-IC expressing vector were from I. Screpanti. Lentiviral vectors for inducible dominant negative TCF4 (rLV-EF1-tTS, rLV-EF1-rtTA and rLV-TRE-CMV-HA-TCF4DN) were purchased from Vectalys.
(§2) Transfections were carried out using Lipofectamine 2000 (Invitrogen) according to the manufacturer’s instructions. Lentiviral expression of TCF-Luc, TA-Renilla, and the inducible dominant negative TCF4, were carried out following Vectalys instructions. For reporter assays, luciferase activities were performed as described previously.

[2] = tested on: HT-1080 xenograft tumor; assay: HT-1080 xenograft tumor growth; format: in vivo, female Crl:CD-1 nude mice; settings: 30 mg/kg twice a day PO, seven days
Experimental: Female athymic nude mice (6 weeks old, Crl:CD-1 nude mice) were obtained from Charles River Italia (Calco, Italy). HT-1080 cells (6×10^∧6 cells) were resuspended in 200 µl of PBS 1X and injected subcutaneously in the right flank of the mice. Body weight and tumor measurements (using a digital caliper) were performed twice a week. Randomization was performed on day 12 after cell injection by comparing tumor mass and treatments started on day 13 when tumors reached a median size of 246 mm^3 (range = 230–268 mm^3). SEN461 was formulated in 0.5% w/v Methocel in MilliQ water and administered PO by oral gavage twice a day at 30 mg/kg for seven consecutive days in a total of 15 animals (n = 5 for each time point). Control animals (n = 5) were administered with the vehicle for the same time period. On treatment day 19, the mice were euthanized under inhalant anesthesia with isoflurane and tumor and blood samples were collected at three different time points (1–4–8 h, n = 5 animals for each time point) after last treatment and subjected to gene expression analysis and compound quantification. All mice were maintained in a conventional-specific-pathogen-free facility according to the NIH guidelines using an approved Animal Care and Use Committee protocol. […]

[3] = tested on: HT-1080 (fibrosarcoma) cells; assay: Soft agar assay (anchorage-independent growth), HT-1080; format: cell-based, human
Experimental: (§3) Soft agar assay and analysis was carried out as previously described. For scratch assay, confluent monolayer of U2OS and HT-1080 cells were subjected to scratch using a sterile pipette tip. Wounded monolayers were washed to remove debris and incubated with SEN461 at different concentrations for 20 hours. After the incubation period, images were taken under an Axiovert 200M (Zeiss) microscope equipped with a CCD camera, and the gap width was measured using MetaMorph 6.3 software (Universal Imaging Corp.) to calculate the area covered by cells (pixels unit). The tube formation assay was performed using growth factor-reduced Matrigel from BD (BD Biosciences; San Jose, CA, USA). Matrigel was thawed overnight at 4°C and was diluted (1∶1) with phenol red-free DMEM without serum. 100 µl of the diluted matrigel was used to coat the wells of a 96 well plate and was allowed to polymerize for 2 hours at 37°C. After equilibrating the gel with the complete growth medium, 15×10^3 cells were seeded in each well and incubated for 20 hours. The tube formation was monitored under a phase contrast microscope (Axiovert 200, Zeiss) and imaged using MetaMorph system (Universal Imaging Corp).

[4] = tested on: Axin1 and β-catenin in 143B osteosarcoma cells; assay: Western blotting in 143B; format: cell-based, human
[5] = tested on: HT-1080 cells; assay: Scratch assay (motility), HT-1080; format: cell-based, human; settings: HT-1080, 20 hours
Experimental: as §3

[6] = tested on: Wnt transcriptional activity (TCF reporter) in U2OS cells; assay: TCF-Luciferase/TA-Renilla Wnt reporter assay in U2OS; format: cell-based, human; settings: 24 h, concentration dependent
Text: as §1, §2

[7] = Plasma and tumor exposure in HT-1080 xenograft mice; format: in vivo, female Crl:CD-1 nude mice; settings: 30 mg/kg BID PO
Experimental: Female athymic nude mice (6 weeks old, Crl:CD-1 nude mice) were obtained from Charles River Italia (Calco, Italy). HT-1080 cells (6×10^∧6 cells) were resuspended in 200 µl of PBS 1X and injected subcutaneously in the right flank of the mice. Body weight and tumor measurements (using a digital caliper) were performed twice a week. Randomization was performed on day 12 after cell injection by comparing tumor mass and treatments started on day 13 when tumors reached a median size of 246 mm^3 (range = 230–268 mm^3). SEN461 was formulated in 0.5% w/v Methocel in MilliQ water and administered PO by oral gavage twice a day at 30 mg/kg for seven consecutive days in a total of 15 animals (n = 5 for each time point). Control animals (n = 5) were administered with the vehicle for the same time period. On treatment day 19, the mice were euthanized under inhalant anesthesia with isoflurane and tumor and blood samples were collected at three different time points (1–4–8 h, n = 5 animals for each time point) after last treatment and subjected to gene expression analysis and compound quantification. All mice were maintained in a conventional-specific-pathogen-free facility according to the NIH guidelines using an approved Animal Care and Use Committee protocol. During all the experimental time period, mice were housed (5 animals/cage) in individually ventilated solid floor plastic cages (Sealsafe Plus GR500, Tecniplast-Gazzada (VA) – Italy) using as bedding the Sawdust SCOBIS UNO by MUCEDOLA S.r.l (via Galileo Galilei 4, 20019 Settimo Milanese, Milano, Italy). Cages were maintained at a temperature of 20–24°C and humidity of 40–70% (Siemens Desigo Apparatus ver. 4.1) with 70 air changes/hour in the cage (10–15 air changes/hour in the room). Animals were subjected to a 12-hour light/12-hour dark cycle and have free access to a standard pelleted commercial laboratory diet (Certified Rodent irradiated 4RF21– Mucedola, Italy) and to municipal tap water, purified by reverse osmosis and autoclaved. The study was conducted in compliance with Decreto Legislativo January 27, 1992, N. 116, Gazzetta Ufficiale N. 40 February 18, 1992, (Directive N. […]) concerning protection of animals used for scientific purposes. The project was authorized by the Italian Institute of Health (48/2009/B). The experimental protocol was rewieved and approved by the Internal Ethical Committee.

[8] = tested on: HUVEC cells; assay: Tube formation assay, HUVEC; format: cell-based; settings: data not shown
Experimental: as §3

[9] = tested on: 143B osteosarcoma cells; assay: Soft agar assay (anchorage-independent growth), 143B; format: cell-based, human; settings: lack of sensitivity up to highest concentration
Experimental: as §3

[10] = tested on: Wnt transcriptional activity in DLD1 colorectal cancer cells; assay: TCF-Luciferase/TA-Renilla Wnt reporter assay in DLD1; format: cell-based; settings: DLD1, transiently transfected
Text: as §1, §2

[11] = tested on: Myc transcriptional activation in HEK293 cells; assay: Nucleolin promoter (pNucL14) luciferase reporter, HEK293; format: cell-based; settings: HEK293, pNucL14 ± FLAG-c-Myc
Text: as §1, §2

COCC(=O)N1CCN(C(=O)C2CCC(Cn3c(=O)c4cc(OC)ccc4n(C)c3=O)CC2)CC1 (centres unmarked) [SEN461]
Notch signaling (Hes5 promoter luciferase) [1]: did not detect any transcriptional effects | antitumor activity (tumor growth) [2]: tumor stasis effect | IC50 [3]: 780 nM | Axin1 protein level [4]: Axin1 stabilization | cytoplasmic β-catenin total level [4]: down-regulation of total level of cytoplasmic β-catenin | cellular motility (two-dimensional scratch assay) [5]: neither U2OS nor HT-1080 cells showed inhibition of motility | TCF-dependent reporter activity (TCF-Luciferase/TA-Renilla) [6]: reduced TCF-dependent reporter activity | Ctumor/plasma ([7]; day 7, 1 h): 0.23 | Cplasma ([7]; day 7, 1 h after last dose): 6.6 µmol/L and 6.62 ± 2.08 µmol/L | Ctumor ([7]; day 7, 1 h after last dose): 1.5 µmol/L and 1.54 ± 0.35 µmol/L | Ctumor/plasma ([7]; day 7, 4 h): 0.23 | Cplasma ([7]; day 7, 4 h after last dose): 2.57 ± 0.08 µmol/L | Ctumor ([7]; day 7, 4 h after last dose): 0.58 ± 0.08 µmol/L | Ctumor/plasma ([7]; day 7, 8 h): 0.17 | Cplasma ([7]; day 7, 8 h after last dose): 0.57 ± 0.19 µmol/L | Ctumor ([7]; day 7, 8 h after last dose): 0.10 ± 0.02 µmol/L | tubule-formation activity [8]: did not show any effect | IC50 [9]: > 30000 nM | Wnt transcriptional activity (TCF-Luciferase/TA-Renilla) [10]: Concentration dependent inhibition of Wnt transcriptional activity | Myc mediated activation / basal activity of nucleolin reporter [11]: did not affect
